PMC12018053 (Biochemistry and Biophysics Reports, 2025)

What was measured:
Rat sEH = target: T1, Rat sEH (Rattus norvegicus, UniProt P80299); test: sEH fluorescent-based inhibition assay; format: biochemical
T1 sequence (P80299 1-554): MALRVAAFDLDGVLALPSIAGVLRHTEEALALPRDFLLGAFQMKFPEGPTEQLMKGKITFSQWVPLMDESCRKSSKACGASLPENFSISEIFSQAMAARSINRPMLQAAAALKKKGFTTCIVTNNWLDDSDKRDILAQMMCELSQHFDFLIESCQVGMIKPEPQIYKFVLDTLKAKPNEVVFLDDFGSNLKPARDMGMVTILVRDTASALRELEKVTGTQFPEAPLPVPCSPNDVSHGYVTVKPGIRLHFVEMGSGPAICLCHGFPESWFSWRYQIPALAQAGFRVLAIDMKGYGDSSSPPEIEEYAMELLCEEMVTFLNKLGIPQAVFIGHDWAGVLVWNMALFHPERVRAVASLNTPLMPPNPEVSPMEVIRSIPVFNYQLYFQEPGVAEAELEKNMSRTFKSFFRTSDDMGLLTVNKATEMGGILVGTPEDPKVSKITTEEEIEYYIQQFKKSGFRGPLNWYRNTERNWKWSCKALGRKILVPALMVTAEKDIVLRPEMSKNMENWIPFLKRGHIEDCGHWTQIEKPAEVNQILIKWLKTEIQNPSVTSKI

5-HT1A = target: T2, 5-HT1A (Homo sapiens, UniProt P08908); test: NIMH PDSP primary binding screen, 5-HT1A; conditions: read-out: Inhibition (%) 5-HT1A
T2 sequence (P08908 1-422): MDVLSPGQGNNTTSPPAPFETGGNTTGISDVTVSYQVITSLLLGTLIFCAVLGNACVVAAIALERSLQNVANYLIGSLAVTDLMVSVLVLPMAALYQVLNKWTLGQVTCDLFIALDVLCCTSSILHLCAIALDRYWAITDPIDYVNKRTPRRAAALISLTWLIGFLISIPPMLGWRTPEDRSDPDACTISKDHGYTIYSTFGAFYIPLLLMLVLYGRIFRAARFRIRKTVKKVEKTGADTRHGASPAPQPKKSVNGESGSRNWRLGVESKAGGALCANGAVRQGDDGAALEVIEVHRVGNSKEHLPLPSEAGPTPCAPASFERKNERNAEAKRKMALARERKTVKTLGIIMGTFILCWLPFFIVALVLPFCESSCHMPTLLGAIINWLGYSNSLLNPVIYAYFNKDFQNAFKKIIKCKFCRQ

- IC50 (Rat sEH): 1 nM
- inhibition at 10 µM (5-HT1A): 4.83 ± 2.43%
SMILES: O=C(Nc1ccc(-c2ccc3ccncc3c2)cc1)C1CCN(S(=O)(=O)c2ccccc2Cl)CC1 [Compound 4f, 1-((2-chlorophenyl)sulfonyl)-N-(4-(isoquinolin-7-yl)phenyl)piperidine-4-carboxamide]
